Laboratory results reported in US20130136753A1, “PAXILLIN AS A THERAPEUTIC OR DIAGNOSTIC MARKER FOR CANCER” (UNIVERSITY OF ROCHESTER, priority 2010, published 2013).

How the values were obtained:
Erk1/2 = test: Western blot of Erk1/2 phosphorylation in LnCAP cells; type: cell-based, human; details: for DHT-induced Erk1/2 phosphorylation: inhibitor 30 min (100 nM flutamide, 20 μM AG1478, 5 μM Erlotinib, 20 μM PP2, 20 μM galardin) before 25 nM DHT 30 min
Protocol: Thereafter, cells were treated with vehicle (0.1% DMSO) or inhibitors Galardin, PP2, AG1478 (Calbiochem), flutamide, or erlotinib (Sigma) for 30 minutes before stimulation with 0.1% ethanol (vehicle) or 25 nM DHT for 30 minutes.
PC3 or LnCAP cells were treated with non-targeting siRNA pool (ThermoFisher Scientific) or paxillin-specific siRNA according to manufacturer's instructions. Two sets of human paxillin siRNAs were used: 1) human paxillin siRNA (Santa Cruz Biotechnology) containing three target-specific 20-25 nucleotide siRNAs or 2) human paxillin siRNA ON-TARGET plus SMARTpoo1 (ThemoFisher Scientific) containing four siRNAs targeting the paxillin mRNA. […] For experiments involving constitutively active (“CA”) Raf (William Walker, University of Pittsburgh) or MEK (Melanie Cobb, University of Texas Southwestern Medical Center), cells were co-transfected with paxillin or nonspecific siRNAs and cDNAs encoding caRaf or caMEK.

Src = test: Western blot of Src phosphorylation in LnCAP cells; type: cell-based, human; details: 20 μM, 30 min before 25 nM DHT
Protocol: (§1) LnCAP and PC3 cell lines were obtained from ATCC and cultured in RPMI 1640 medium (Invitrogen) containing 10% FBS and 1% penicillin-streptomycin. For experiments involving pharmacological inhibitors, cells were treated overnight with serum-free, phenol red-free RPMI 1640 media. Thereafter, cells were treated with vehicle (0.1% DMSO) or inhibitors Galardin, PP2, AG1478 (Calbiochem), flutamide, or erlotinib (Sigma) for 30 minutes before stimulation with 0.1% ethanol (vehicle) or 25 nM DHT for 30 minutes.
(§2) Western blots were performed as described (Evaul and Hammes, “Cross-Talk Between G Protein-Coupled and Epidermal Growth Factor Receptors Regulates Gonadotropin-Mediated Steroidogenesis in Leydig Cells,” J. Biol. Chem. 283(41):27525-27533 (2008), which is hereby incorporated by reference in its entirety). Primary antibodies were: paxillin, paxillinphospho-Tyr118, paxillin-phospho-Tyr31, Akt1/2/3, Akt1/2/3 phospho-Ser473, EGFR at 1:1000 dilution, and EGFR phospho-Tyr845 (1:500) (Santa Cruz Biotechnology); paxillin phospho-Ser126 (Invitrogen); paxillin phospho-Ser83 (ECM Biosciences); p44/42-Erk1/2, phospho-p44/42-Erk1/2 (Thr202/[…]), phospho-Ser217/221-MEK1/2, src, src-phospho-Tyr416 (Cell Signaling Technology) at 1:1000 dilutions and f3-actin (1:5000, Millipore).

paxillin [1] = test: Western blot of paxillin phosphorylation in LnCAP cells; type: cell-based, human; details: for DHT-induced paxillin phosphorylation at all four sites (tyrosines 31/118, serines 83/126): AG1478 or 20 μM PP2 before DHT
Protocol: as §1, §2

PSA mRNA = PSA mRNA expression by real time PCR in LnCAP cells; type: cell-based, human; details: 20 μM U0126 or 20 μM AG1478 30 minutes before 25 nM DHT 24 hours
Protocol: RNA was isolated with the RNeasy mini kit (Qiagen) according to manufacturer's instructions. Levels of Kallikrein-related peptidase-3 (KLK3, or prostate-specific antigen (“PSA”)), paxillin, cyclin D1, and GAPDH expression were analyzed by the A/A-Ct method using Taqman gene expression assay primers (assay ID# Hs99999905_ml-GAPDH, Hs02576345_ml-KLK3, Hs99999004_ml-CCND1, and Hs01104424-ml-PXN; Applied Biosystems) on an ABI StepOne plus real-time PCR machine.

MEK = details: MLTC cells; 20 μM; cited from earlier work
EGFR = EGFR transactivation assay in A431 cells; type: cell-based
Protocol: A431 cells were used to detect DHT-mediated release of EGFR ligands from LnCAP cells. A431 cells (ATCC) were cultured in DMEM/F-12 (1:1) medium (Invitrogen) containing 10% FBS and 1% penicillin-streptomycin, serum-starved overnight, and then stimulated with medium from DHT−, DHT+Galardin−, or vehicle (0.1% ethanol)-treated LnCAP cells for 60 minutes. As controls, A431 cells were stimulated with DHT or media alone. Thereafter, A431 cells were isolated for Western blot analysis to detect phosphorylated and total EGFR.

LnCAP cells = test: MTT cell proliferation assay, LnCAP cells; type: cell-based, human
Protocol: (§3) PC3 or LnCAP cells were treated with non-targeting siRNA pool (ThermoFisher Scientific) or paxillin-specific siRNA according to manufacturer's instructions. Two sets of human paxillin siRNAs were used: 1) human paxillin siRNA (Santa Cruz Biotechnology) containing three target-specific 20-25 nucleotide siRNAs or 2) human paxillin siRNA ON-TARGET plus SMARTpoo1 (ThemoFisher Scientific) containing four siRNAs targeting the paxillin mRNA. The latter was used for all experiments described in the accompanying Examples, although results were similar with both pools. For experiments involving constitutively active (“CA”) Raf (William Walker, University of Pittsburgh) or MEK (Melanie Cobb, University of Texas Southwestern Medical Center), cells were co-transfected with paxillin or nonspecific siRNAs and cDNAs encoding caRaf or caMEK. After 72 hours, cells were treated overnight with serum-free, phenol red-free RPMI 1640 media and stimulated with 0.1% ethanol/DMSO (vehicle), 25 nM DHT (Steraloids), 20 ng/ml EGF (BD Biosciences), or 100 nM PMA (Sigma) for the times indicated for Western blots or 24 hours for MTT assays.
(§4) MTT assays were performed using a colorimetric assay cell proliferation kit (Roche Applied Science) according to the manufacturer's instructions.

androgen receptors (AR) = test: Androgen receptor nuclear localization by fluorescence imaging; type: cell-based
Protocol: Cellular staining was carried out using fluorescence imaging for androgen receptors (AR) and DAPI. […] Furthermore, knockdown and rescue experiments confirm that phosphoserine-paxillin is the moiety regulating AR translocation to the nucleus, since the mutant lacking the Erk serine targets (S A) cannot sustain AR nuclear localization (FIG. 17F versus 17E). Importantly, leptomycin B, which prevents nuclear export through CRM, rescues the nuclear localization of the AR in paxillin-knockdown cells stimulated with DHT (FIG. 17D). […] The latter allows the AR to remain in the nucleus, bind DNA, and promote transcription.

paxillin [2] = test: Subcellular localization of paxillin and phosphoserine-paxillin; type: cell-based; details: upon stimulation with DHT or EGF
From the text: The subcellular localization of paxillin versus phosphoserine-paxillin was first examined. As expected, paxillin is localized primarily in the cytoplasm in resting cells (FIG. 14, unstimulated). […] This confirms the model of FIG. 9C, which posits that phosphoserine-paxillin regulates nuclear processes. Therefore, a common AR-mediated transcriptional event was examined: expression of PSA mRNA. […] Furthermore, knockdown of endogenous paxillin in LnCAP cells prevented DHT-induced induction of PSA mRNA expression and promoter activity (FIGS. 9A and 15). […] Together, these studies further emphasize that paxillin regulates cross-talk between extranuclear kinase signaling and intranuclear transcription.

paxillin [3] = test: Western blot of paxillin phosphorylation in PC3 cells; type: cell-based, human
Protocol: FIGS. 8A-D illustrate that PMA-mediated Erk1/2 activation is paxillin-independent, but PMA-mediated proliferation still requires serine phosphorylation of paxillin. In FIG. 8A, paxillin (Pax) or non-targeting (Nsp) siRNA-treated LnCAP cells were serum-starved and treated with PMA (100 nM) or EGF (20 ng/ml) for 30 minutes. Western blots were performed for paxillin and total and phosphorylated Erk1/2. In FIG. 8B, serum-starved PC3 cells were pretreated with 0.1% DMSO or 20 μM U0126 ([…]) for 30 minutes before stimulation with PMA (100 nM) or EGF (20 ng/ml) for another 30 minutes. Thereafter, levels of paxillin and phosphorylated paxillin at tyrosine-118 (Pax p-Y118) and serine-126 (Pax p-S126) were detected by Western blot. In FIG. 8C, cell proliferation (MTT assay) of PC3 cells treated (24 hours) with 0.1% DMSO (M) or 100 nM PMA in the presence or absence of 20 μM U0126. In FIG. 8D, PC3 cells were initially transfected with Paxillin (Pax) or non-targeting (Nsp) siRNA. After 96 hours, media were removed, and cells were then either mock-transfected or transfected with wild-type paxillin (left panel) or paxillin mutated at tyrosines 31/118 (Y31A/Y118A, middle panel) or serines 83/126/130 (S83A/S126A/S130A, right panel). […] Cell proliferation was detected by MTT. […]

PC3 cells = test: MTT cell proliferation assay, PC3 cells; type: cell-based, human; details: 100 nM PMA 24 hours, 20 μM U0126
Protocol: as §3, §4

[4] = target: prostate-specific membrane antigen (PSMA) (Homo sapiens, UniProt Q04609); details: cited from earlier work
Sequence of prostate-specific membrane antigen (PSMA) (Q04609 whole entry): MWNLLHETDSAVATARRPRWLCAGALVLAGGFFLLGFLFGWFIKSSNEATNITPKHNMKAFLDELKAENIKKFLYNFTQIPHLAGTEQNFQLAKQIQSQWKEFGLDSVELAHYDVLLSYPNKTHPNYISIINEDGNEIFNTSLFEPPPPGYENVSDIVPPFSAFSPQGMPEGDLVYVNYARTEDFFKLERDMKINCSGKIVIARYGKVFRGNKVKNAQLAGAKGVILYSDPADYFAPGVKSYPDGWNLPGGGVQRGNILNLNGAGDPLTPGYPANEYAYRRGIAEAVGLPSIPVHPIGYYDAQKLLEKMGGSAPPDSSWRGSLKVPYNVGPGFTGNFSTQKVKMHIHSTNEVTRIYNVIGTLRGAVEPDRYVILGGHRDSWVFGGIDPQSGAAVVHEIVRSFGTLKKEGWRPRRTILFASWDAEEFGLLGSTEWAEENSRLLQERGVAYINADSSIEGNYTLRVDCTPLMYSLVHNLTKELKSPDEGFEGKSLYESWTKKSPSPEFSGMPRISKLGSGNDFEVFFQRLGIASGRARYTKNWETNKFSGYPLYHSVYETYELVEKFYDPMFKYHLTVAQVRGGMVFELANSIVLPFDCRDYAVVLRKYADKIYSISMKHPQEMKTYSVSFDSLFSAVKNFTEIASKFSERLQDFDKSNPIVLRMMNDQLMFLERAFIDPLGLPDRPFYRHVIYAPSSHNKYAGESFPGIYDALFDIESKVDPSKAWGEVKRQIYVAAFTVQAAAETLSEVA

## COc1cc2ncnc(Nc3cccc(Cl)c3)c2cc1OC [AG1478]
Erk1/2; 20 μM AG1478, EGF 20 ng/ml
  EGF-induced Erk activation: specifically blocks
Erk1/2; 20 μM AG1478, FGF 25 ng/ml
  FGF-induced Erk activation: does not block
Erk1/2
  DHT-induced Erk1/2 phosphorylation: blocked
Src
  DHT-induced Src phosphorylation: blocked
Paxillin [1]
  DHT-induced paxillin phosphorylation at all four sites (tyrosines 31/118, serines 83/126): abrogated
PSA mRNA
  DHT-induced expression of PSA mRNA: abrogated
MEK
  EGF but not FGF-induced MEK activation: specifically blocks

## C[C@]12CCC(=O)C[C@@H]1CC[C@@H]1[C@@H]2CC[C@]2(C)[C@@H](O)CC[C@@H]12 [DHT]
Erk1/2; 25 nM DHT or 20 ng/ml EGF
  Erk1/2 activation from 15 to 120 minutes: induced
Erk1/2; 25 nM DHT, 30 minutes
  Erk1/2 phosphorylation/activation: significantly induced
EGFR; DHT alone (25 nM), no LnCAP cells
  EGF receptor activation in A431 cells, direct stimulation: did not promote
EGFR; medium from 25 nM DHT-treated LnCAP cells, 60 minutes
  EGF receptor phosphorylation in A431 cells by medium from treated LnCAP cells: increased
LnCAP cells; 0.1-100 nM DHT
  LnCAP proliferation by both MTT and BrdU incorporation: promoted
LnCAP cells; LnCAP, DHT 25 nM or EGF 20 ng/ml, 24 hours
  cell proliferation (MTT): significantly stimulated
Paxillin [1]; 25 nM DHT, 30 minutes
  phosphorylation of paxillin at tyrosines 31/118 and serines 83/126: triggered
Androgen receptors (AR); DHT-treatment
  AR nuclear localization: promotes
Paxillin [2]
  localization of total paxillin (T-Pax): relocalizes the nucleus
  share of phosphoserine-paxillin (PS-PAX) in the nucleus: nearly all

## C#Cc1cccc(Nc2ncnc3cc(OCCOC)c(OCCOC)cc23)c1 [Erlotinib]
Erk1/2
  DHT-induced Erk1/2 phosphorylation: blocked

## CCCCCCCCCCCCCC(=O)O[C@@H]1[C@@H](C)[C@@]2(O)[C@@H](C=C(CO)C[C@]3(O)C(=O)C(C)=C[C@@H]23)[C@@H]2C(C)(C)[C@]12OC(C)=O [PMA]
Paxillin [3]; PMA 100 nM or EGF 20 ng/ml, 30 minutes
  paxillin phosphorylation (tyrosine and serine): only promoted serine phosphorylation

## CC(C)(C)n1nc(-c2ccc(Cl)cc2)c2c(N)ncnc21 [PP2]
Erk1/2
  DHT-induced Erk1/2 phosphorylation: blocked
Paxillin [1]
  DHT-induced paxillin phosphorylation at all four sites (tyrosines 31/118, serines 83/126): abrogated

## N#CC(=C(/N)Sc1ccccc1N)/C(C#N)=C(\N)Sc1ccccc1N [U0126]
PC3 cells
  PMA-induced proliferation of PC3 cells: blocked
Paxillin [1]; 20 μM U0126
  DHT-induced phosphorylation of paxillin at serines 83/126: blocked
Paxillin [3]; 20 μM U0126
  PMA-induced serine phosphorylation of paxillin: blocked
PSA mRNA
  DHT-induced expression of PSA mRNA: abrogated

## CNC(=O)[C@H](Cc1c[nH]c2ccccc12)NC(=O)[C@@H](CC(=O)NO)CC(C)C [galardin]
Erk1/2
  DHT-induced Erk1/2 phosphorylation: block
EGFR; 20 μM galardin added to DHT (25 nM)-treated LnCAP cells
  ability of medium from DHT-treated LnCAP cells to activate EGF receptor signaling in A431 cells: blocked

## CCC(=C/[C@H](C)C/C=C/C(C)=C/[C@@H](C)C(=O)[C@@H](C)[C@H](O)[C@@H](C)C/C(C)=C/C(=O)O)/C=C/[C@@H]1OC(=O)C=C[C@@H]1C [leptomycin B]
Androgen receptors (AR); leptomycin B prevents nuclear export through CRM
  nuclear localization of the AR in paxillin-knockdown cells stimulated with DHT: rescues

## Aptamer A10-3: RNA aptamer which binds specifically to PSMA (GGGAGGACGAUGCGGAUCAGCCAUGUUUACGUCACUCCUUGUCAAUCCUCAUCGGC; listed as RNA, chemistry not given here)
[4]
  binding to PSMA: binds specifically

B1: Aptamer A9: RNA aptamer which binds specifically to PSMA (nucleic acid)
chain: GGGAGGACGAUGCGGACCGAAAAAGACCUGACUUCUAUACUAAGUCUACGUUCCCAGACGACUCGCCCGA
modifications: listed as RNA, chemistry not given here
[4]
  binding to PSMA: binds specifically

B2: Aptamer A10: RNA aptamer which binds specifically to PSMA (nucleic acid)
chain: GGGAGGACGAUGCGGAUCAGCCAUGUUUACGUCACUCCUUGUCAAUCCUCAUCGGCAGACGACUCGCCCGA
modifications: listed as RNA, chemistry not given here
[4]
  binding to PSMA: binds specifically
